Laboratory results taken from ChEMBL document CHEMBL4421728, “Bach1 Inhibitors in Combination with Nrf2 Activators and Pharmaceutical Compositions Thereof” (2017).

How the values were obtained:
[1] = biological target: T1, Transcription regulator protein BACH1 (Homo sapiens) (UniProt O14867); assay: Inhibition of Bach1 in normal human lung fibroblasts assessed as induction of HMOX protein expression at 0.039 uM in presence of 0.3 uM Nrf2 activator DMF incubated for 16 to 18 hrs by immunostaining relative to control
T1 sequence (whole entry): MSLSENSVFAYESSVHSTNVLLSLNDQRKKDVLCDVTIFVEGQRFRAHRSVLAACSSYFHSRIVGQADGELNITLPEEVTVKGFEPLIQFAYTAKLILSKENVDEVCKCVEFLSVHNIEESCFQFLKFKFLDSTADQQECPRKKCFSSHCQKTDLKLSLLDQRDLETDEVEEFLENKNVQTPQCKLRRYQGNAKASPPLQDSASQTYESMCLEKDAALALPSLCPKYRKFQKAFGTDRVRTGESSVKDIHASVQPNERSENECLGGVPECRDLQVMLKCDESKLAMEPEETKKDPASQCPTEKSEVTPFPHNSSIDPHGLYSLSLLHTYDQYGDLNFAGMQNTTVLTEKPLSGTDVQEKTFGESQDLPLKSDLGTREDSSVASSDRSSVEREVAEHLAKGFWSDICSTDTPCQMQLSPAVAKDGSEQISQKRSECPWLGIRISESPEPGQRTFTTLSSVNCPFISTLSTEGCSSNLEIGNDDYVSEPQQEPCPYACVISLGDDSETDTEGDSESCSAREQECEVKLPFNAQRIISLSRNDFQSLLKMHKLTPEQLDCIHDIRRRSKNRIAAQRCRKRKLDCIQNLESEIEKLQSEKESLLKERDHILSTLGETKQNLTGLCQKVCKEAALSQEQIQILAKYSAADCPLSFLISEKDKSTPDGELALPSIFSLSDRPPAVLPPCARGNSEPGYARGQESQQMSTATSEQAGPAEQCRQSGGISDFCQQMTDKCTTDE

[2] = biological target: T1, Transcription regulator protein BACH1 (Homo sapiens); assay: Inhibition of Bach1 in normal human lung fibroblasts assessed as induction of HMOX protein expression by measuring HMOX positive cells level at 0.019 uM in presence of 3 uM Nrf2 activator DMF incubated for 16 to 18 hrs by immunostaining relative to control DMSO; parameters: scale not given: the % may be the effect or the level left
[3] = biological target: T1, Transcription regulator protein BACH1 (Homo sapiens); assay: Inhibition of Bach1 in normal human lung fibroblasts assessed as induction of HMOX protein expression by measuring HMOX positive cells level at 0.039 uM incubated for 16 to 18 hrs by immunostaining relative to control DMSO; parameters: scale not given: the % may be the effect or the level left
[4] = biological target: T1, Transcription regulator protein BACH1 (Homo sapiens); assay: Inhibition of Bach1 in normal human lung fibroblasts assessed as induction of HMOX protein expression by measuring HMOX positive cells level at 0.039 uM in presence of 3 uM Nrf2 activator DMF incubated for 16 to 18 hrs by immunostaining relative to control DMSO; parameters: scale not given: the % may be the effect or the level left
[5] = biological target: T1, Transcription regulator protein BACH1 (Homo sapiens); assay: Inhibition of Bach1 in normal human lung fibroblasts assessed as induction of HMOX protein expression by measuring HMOX positive cells level at 0.039 uM in presence of 0.1 uM Nrf2 activator DMF incubated for 16 to 18 hrs by immunostaining relative to control DMSO; parameters: scale not given: the % may be the effect or the level left
[6] = biological target: T1, Transcription regulator protein BACH1 (Homo sapiens); assay: Inhibition of Bach1 in normal human lung fibroblasts assessed as induction of HMOX protein expression by measuring HMOX positive cells level at 0.078 uM in presence of 10 uM Nrf2 activator DMF incubated for 16 to 18 hrs by immunostaining relative to control DMSO; parameters: scale not given: the % may be the effect or the level left
[7] = biological target: T1, Transcription regulator protein BACH1 (Homo sapiens); assay: Inhibition of Bach1 in normal human lung fibroblasts assessed as induction of HMOX protein expression at 0.156 uM in presence of 0.03 uM Nrf2 activator DMF incubated for 16 to 18 hrs by immunostaining relative to control
[8] = biological target: T1, Transcription regulator protein BACH1 (Homo sapiens); assay: Inhibition of Bach1 in normal human lung fibroblasts assessed as induction of HMOX protein expression at 0.039 uM in presence of 30 uM Nrf2 activator DMF incubated for 16 to 18 hrs by immunostaining relative to control
[9] = biological target: T1, Transcription regulator protein BACH1 (Homo sapiens); assay: Inhibition of Bach1 in normal human lung fibroblasts assessed as induction of HMOX protein expression at 0.156 uM in presence of 1 uM Nrf2 activator DMF incubated for 16 to 18 hrs by immunostaining relative to control
[10] = biological target: T1, Transcription regulator protein BACH1 (Homo sapiens); assay: Inhibition of Bach1 in normal human lung fibroblasts assessed as induction of HMOX protein expression by measuring HMOX positive cells level at 0.156 uM in presence of 0.3 uM Nrf2 activator DMF incubated for 16 to 18 hrs by immunostaining relative to control DMSO; parameters: scale not given: the % may be the effect or the level left
[11] = biological target: T1, Transcription regulator protein BACH1 (Homo sapiens); assay: Inhibition of Bach1 in normal human lung fibroblasts assessed as induction of HMOX protein expression at 0.156 uM in presence of 0.1 uM Nrf2 activator DMF incubated for 16 to 18 hrs by immunostaining relative to control
[12] = biological target: T1, Transcription regulator protein BACH1 (Homo sapiens); assay: Inhibition of Bach1 in normal human lung fibroblasts assessed as induction of HMOX protein expression by measuring HMOX positive cells level at 0.156 uM in presence of 1 uM Nrf2 activator DMF incubated for 16 to 18 hrs by immunostaining relative to control DMSO; parameters: scale not given: the % may be the effect or the level left
[13] = biological target: T1, Transcription regulator protein BACH1 (Homo sapiens); assay: Inhibition of Bach1 in normal human lung fibroblasts assessed as induction of HMOX protein expression at 0.078 uM in presence of 1 uM Nrf2 activator DMF incubated for 16 to 18 hrs by immunostaining relative to control
[14] = biological target: T1, Transcription regulator protein BACH1 (Homo sapiens); assay: Inhibition of Bach1 in normal human lung fibroblasts assessed as induction of HMOX protein expression at 0.019 uM in presence of 30 uM Nrf2 activator DMF incubated for 16 to 18 hrs by immunostaining relative to control
[15] = biological target: T1, Transcription regulator protein BACH1 (Homo sapiens); assay: Inhibition of Bach1 in normal human lung fibroblasts assessed as induction of HMOX protein expression by measuring HMOX positive cells level at 0.019 uM in presence of 0.03 uM Nrf2 activator DMF incubated for 16 to 18 hrs by immunostaining relative to control DMSO; parameters: scale not given: the % may be the effect or the level left
[16] = biological target: T1, Transcription regulator protein BACH1 (Homo sapiens); assay: Inhibition of Bach1 in normal human lung fibroblasts assessed as induction of HMOX protein expression by measuring HMOX positive cells level at 0.078 uM incubated for 16 to 18 hrs by immunostaining relative to control DMSO; parameters: scale not given: the % may be the effect or the level left
[17] = biological target: T1, Transcription regulator protein BACH1 (Homo sapiens); assay: Inhibition of Bach1 in normal human lung fibroblasts assessed as induction of HMOX protein expression by measuring HMOX positive cells level at 0.019 uM in presence of 0.3 uM Nrf2 activator DMF incubated for 16 to 18 hrs by immunostaining relative to control DMSO; parameters: scale not given: the % may be the effect or the level left
[18] = biological target: T1, Transcription regulator protein BACH1 (Homo sapiens); assay: Inhibition of Bach1 in normal human lung fibroblasts assessed as induction of HMOX protein expression by measuring HMOX positive cells level at 0.078 uM in presence of 1 uM Nrf2 activator DMF incubated for 16 to 18 hrs by immunostaining relative to control DMSO; parameters: scale not given: the % may be the effect or the level left
[19] = biological target: T1, Transcription regulator protein BACH1 (Homo sapiens); assay: Inhibition of Bach1 in normal human lung fibroblasts assessed as induction of HMOX protein expression at 0.039 uM in presence of 0.1 uM Nrf2 activator DMF incubated for 16 to 18 hrs by immunostaining relative to control
[20] = biological target: T1, Transcription regulator protein BACH1 (Homo sapiens); assay: Inhibition of Bach1 in normal human lung fibroblasts assessed as induction of HMOX protein expression at 0.019 uM in presence of 3 uM Nrf2 activator DMF incubated for 16 to 18 hrs by immunostaining relative to control

SMILES | fold change (FC) [1] | Activity [2] [%] | Activity [3] [%] | Activity [4] [%] | Activity [5] [%] | Activity [6] [%] | fold change (FC) [7] | fold change (FC) [8] | fold change (FC) [9] | Activity [10] [%] | fold change (FC) [11] | Activity [12] [%] | fold change (FC) [13] | fold change (FC) [14] | Activity [15] [%] | Activity [16] [%] | Activity [17] [%] | Activity [18] [%] | fold change (FC) [19] | fold change (FC) [20]
COCCNC(=O)c1cnc2c(c1)nc(Nc1nc3ccc(OC(F)(F)F)cc3s1)n2C | 1.59 | 54.6 | 5.3 | 75.8 | 2.54 | 94.5 | 1.46 | 4.82 | 2.87 | 30.1 | 1.73 | 57.7 | 2.29 | 4.23 | 1.8 | 8.23 | 8.27 | 29.4 | 1.08 | 2.98
Cn1c(Nc2nc3ccc(C(F)(F)F)cc3s2)nc2cc(C(=O)NCCOCCO)ccc21 | 1.81 | 80.2 | 28 | 78.7 | 6.75 | 97.7 | 5.22 | 5.52 | 6.04 | 94.5 | 4.89 | 97.7 | 3.83 | 4.9 | 4.94 | 74 | 7.63 | 84.8 | 1.52 | 3.55
CN(C)C(=O)CNC(=O)c1ccc2c(c1)nc(Nc1nc3ccc(C(F)(F)F)cc3s1)n2C | 1.61 | 51.5 | 2.31 | 68 | 6.82 | 97.2 | 1.99 | 4.9 | 4.08 | 50 | 2.54 | 66.7 | 2.53 | 4.65 | 1.18 | 7.12 | 6.49 | 37.7 | 1.35 | 2.86
